Results taken from patent publication US20080114007A1 (priority 2006, published 2008).
Where two headings read alike, the source gives them in different places.

Biological target: CSF-1R (Homo sapiens, UniProt P07333)
Test: Peptide (non-phosphorylated) assay, fluorescence polarization competition immunoassay
Assay type: biochemical
Settings: 308 μM SYEGNSYTFIDPTQ peptide, 1 mM ATP, 80 min, mean of at least three determinations
Method in brief: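 Human CSF-1R kinase reaction started with ATP and run 80 min at room temperature, then stopped with EDTA. Phosphopeptide detected by fluorescence polarization competition using anti-phosphotyrosine antibody and PTK green tracer after 30 min. Controls used 4% DMSO, with EDTA added before reaction start for positive controls.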

[1] = 0.7 nM CSF-1R, read-out: c-fms Peptide IC50

CSF-1R, sequence (P07333 20-972): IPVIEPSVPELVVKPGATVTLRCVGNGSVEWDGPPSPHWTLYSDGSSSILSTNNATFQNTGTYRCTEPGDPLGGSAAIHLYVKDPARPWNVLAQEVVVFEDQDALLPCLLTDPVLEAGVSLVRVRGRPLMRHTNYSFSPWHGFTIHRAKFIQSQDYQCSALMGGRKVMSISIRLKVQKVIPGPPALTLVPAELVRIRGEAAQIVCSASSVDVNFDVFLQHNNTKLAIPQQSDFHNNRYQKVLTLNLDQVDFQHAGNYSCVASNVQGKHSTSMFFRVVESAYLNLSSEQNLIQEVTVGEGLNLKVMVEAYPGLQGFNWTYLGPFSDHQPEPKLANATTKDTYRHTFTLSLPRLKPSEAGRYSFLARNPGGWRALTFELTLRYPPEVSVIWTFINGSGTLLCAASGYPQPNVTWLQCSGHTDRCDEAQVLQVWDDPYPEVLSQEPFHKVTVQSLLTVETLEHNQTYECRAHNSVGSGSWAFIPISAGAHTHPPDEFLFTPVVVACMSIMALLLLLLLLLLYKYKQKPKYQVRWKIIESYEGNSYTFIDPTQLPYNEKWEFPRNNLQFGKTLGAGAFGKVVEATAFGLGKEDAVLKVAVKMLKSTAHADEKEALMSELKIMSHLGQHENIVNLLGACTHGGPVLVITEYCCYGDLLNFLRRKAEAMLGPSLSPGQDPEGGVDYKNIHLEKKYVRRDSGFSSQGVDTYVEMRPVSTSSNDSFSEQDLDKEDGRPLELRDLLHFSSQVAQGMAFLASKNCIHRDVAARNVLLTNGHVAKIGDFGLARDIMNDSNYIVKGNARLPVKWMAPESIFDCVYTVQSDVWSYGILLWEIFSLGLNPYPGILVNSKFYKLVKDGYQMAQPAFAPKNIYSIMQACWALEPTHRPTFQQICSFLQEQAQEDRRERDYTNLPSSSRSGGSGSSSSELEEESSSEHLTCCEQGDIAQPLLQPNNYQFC

IC50 [1] [nM] | IC50 (c-fms Peptide IC50, 0.7 nM CSF-1R) [nM] | Structure (SMILES)
0.3 |  | CCc1ccc(-n2cc(C(=O)NOC)c(=O)c3cnc(Nc4ccc(OC5CCN(C)CC5)cc4)nc32)cc1 [Cpd 309, 8-(4-ethyl-phenyl)-2-[4-(1-methyl-piperidin-4-yloxy)-phenylamino]-5-oxo-5,8-dihydro-pyrido[2,3-d]pyrimidine-6-carboxylic acid methoxy-amide]
0.62 |  | CONC(=O)c1cn(-c2ccc3c(c2)CCC3)c2nc(Nc3ccc(CCN(C)C4CCOCC4)cc3)ncc2c1=O [Cpd 74, 8-indan-5-yl-2-(4-{2-[methyl-(tetrahydro-pyran-4-yl)-amino]-ethyl}-phenylamino)-5-oxo-5,8-dihydro-pyrido[2,3-d]pyrimidine-6-carboxylic acid methoxy-amide]
17 |  | NC(=O)c1cn(-c2ccc3c(c2)CCC3)c2nc(Nc3cccc(C(=O)N4CCOCC4)c3)ncc2c1=O [Cpd 120, 8-indan-5-yl-2-[3-(morpholine-4-carbonyl)-phenylamino]-5-oxo-5,8-dihydro-pyrido[2,3-d]pyrimidine-6-carboxylic acid amide]
1.7 |  | CONC(=O)c1cn(-c2ccc3c(c2)CCC3)c2nc(Nc3ccc(CCN4CCC(F)(F)C4)cc3)ncc2c1=O [Cpd 241, 2-{4-[2-(3,3-difluoro-pyrrolidin-1-yl)-ethyl]-phenylamino}-8-indan-5-yl-5-oxo-5,8-dihydro-pyrido[2,3-d]pyrimidine-6-carboxylic acid methoxy-amide]
9.6 |  | CN1CCN(c2ccc(Nc3ncc4c(=O)c(C(N)=O)cn(Cc5ccccc5)c4n3)cc2)CC1 [Cpd 114, 8-benzyl-2-[4-(4-methyl-piperazin-1-yl)-phenylamino]-5-oxo-5,8-dihydro-pyrido[2,3-d]pyrimidine-6-carboxylic acid amide]
66 |  | CCONC(=O)c1cn(-c2ccc3c(c2)CCC3)c2nc(Nc3ccc(CCN4CCCC4=O)cc3)ncc2c1=O [Cpd 135, 8-indan-5-yl-5-oxo-2-{4-[2-(2-oxo-pyrrolidin-1-yl)-ethyl]-phenylamino}-5,8-dihydro-pyrido[2,3-d]pyrimidine-6-carboxylic acid ethoxy-amide]
1.3 |  | CONC(=O)c1cn(-c2ccc3c(c2)CCC3)c2nc(Nc3ccc(C4CCN(CCO)CC4)cc3)ncc2c1=O [Cpd 88, 2-{4-[1-(2-hydroxy-ethyl)-piperidin-4-yl]-phenylamino}-8-indan-5-yl-5-oxo-5,8-dihydro-pyrido[2,3-d]pyrimidine-6-carboxylic acid methoxy-amide]
7 |  | CCc1ccc(-n2cc(C(=O)NOC(C)C)c(=O)c3cnc(Nc4ccc(C5CCN(S(C)(=O)=O)CC5)cc4)nc32)cc1 [Cpd 60, 8-(4-ethyl-phenyl)-2-[4-(1-methanesulfonyl-piperidin-4-yl)-phenylamino]-5-oxo-5,8-dihydro-pyrido[2,3-d]pyrimidine-6-carboxylic acid isopropoxy-amide]
3.1 |  | NC(=O)c1cn(-c2ccc3c(c2)CCC3)c2nc(Nc3ccc(N4CCC[C@H]4CO)cc3)ncc2c1=O [Cpd 6, (S)-2-[4-(2-hydroxymethyl-pyrrolidin-1-yl)-phenylamino]-8-indan-5-yl-5-oxo-5,8-dihydro-pyrido[2,3-d]pyrimidine-6-carboxylic acid amide]
0.71 |  | CNCCS(=O)(=O)c1cccc(Nc2ncc3c(=O)c(C(=O)NOC)cn(-c4ccc5c(c4)CCC5)c3n2)c1 [Cpd 231, 8-indan-5-yl-2-[3-(2-methylamino-ethanesulfonyl)-phenylamino]-5-oxo-5,8-dihydro-pyrido[2,3-d]pyrimidine-6-carboxylic acid methoxy-amide]
0.64 |  | CCN1CCCCC1c1ccc(Nc2ncc3c(=O)c(C(=O)NOC)cn(-c4ccc5c(c4)CCC5)c3n2)cc1 (stereo not shown) [Cpd 244, 2-[4-(1-ethyl-piperidin-2-yl)-phenylamino]-8-indan-5-yl-5-oxo-5,8-dihydro-pyrido[2,3-d]pyrimidine-6-carboxylic acid methoxy-amide]
 | 1.7 | CONC(=O)c1cn(-c2ccc3c(c2)CCC3)c2nc(Nc3ccc(CCN4CCC(F)(F)CC4)cc3)ncc2c1=O [Cpd 234, 2-{4-[2-(4,4-difluoro-piperidin-1-yl)-ethyl]-phenylamino}-8-indan-5-yl-5-oxo-5,8-dihydro-pyrido[2,3-d]pyrimidine-6-carboxylic acid methoxy-amide]
1.1 |  | CONC(=O)c1cn(C2CCCC2)c2nc(Nc3ccc(CCN4CCCC4)cc3)ncc2c1=O [Cpd 39, 8-cyclopentyl-5-oxo-2-[4-(2-pyrrolidin-1-yl-ethyl)-phenylamino]-5,8-dihydro-pyrido[2,3-d]pyrimidine-6-carboxylic acid methoxy-amide]
0.95 |  | COCCOc1cccc(Nc2ncc3c(=O)c(C(=O)NOC)cn(-c4ccc5c(c4)CCC5)c3n2)c1 [Cpd 261, 8-indan-5-yl-2-[3-(2-methoxy-ethoxy)-phenylamino]-5-oxo-5,8-dihydro-pyrido[2,3-d]pyrimidine-6-carboxylic acid methoxy-amide]
14 |  | CCc1ccc(-n2cc(C(=O)NOC)c(=O)c3cnc(Nc4ccc(-c5ccc(N(C)C)cc5)cc4)nc32)cc1 [Cpd 306, 2-(4′-dimethylamino-biphenyl-4-ylamino)-8-(4-ethyl-phenyl)-5-oxo-5,8-dihydro-pyrido[2,3-d]pyrimidine-6-carboxylic acid methoxy-amide]
0.94 |  | O=C(NO)c1cn(C2CCCCC2)c2nc(Nc3ccc(CCN4CCCC4)cc3)ncc2c1=O [Cpd 17, 8-cyclohexyl-5-oxo-2-[4-(2-pyrrolidin-1-yl-ethyl)-phenylamino]-5,8-dihydro-pyrido[2,3-d]pyrimidine-6-carboxylic acid hydroxyamide]
2.3 |  | CONC(=O)c1cn(-c2ccc3c(c2)CCC3)c2nc(Nc3ccc(CCc4n[nH]c(C)n4)cc3)ncc2c1=O [Cpd 172, 8-indan-5-yl-2-{4-[2-(5-methyl-1H-[1,2,4]triazol-3-yl)-ethyl]-phenylamino}-5-oxo-5,8-dihydro-pyrido[2,3-d]pyrimidine-6-carboxylic acid methoxy-amide]
2.1 |  | CONC(=O)c1cn(C2CCCC2)c2nc(Nc3ccc(C(=O)N4CCCC4)cc3)ncc2c1=O [Cpd 36, 8-cyclopentyl-5-oxo-2-[4-(pyrrolidine-1-carbonyl)-phenylamino]-5,8-dihydro-pyrido[2,3-d]pyrimidine-6-carboxylic acid methoxy-amide]
1.1 |  | CONC(=O)c1cn(-c2ccc3c(c2)CCC3)c2nc(Nc3cccc(S(=O)(=O)CCN(C)C)c3)ncc2c1=O [Cpd 230, 2-[3-(2-dimethylamino-ethanesulfonyl)-phenylamino]-8-indan-5-yl-5-oxo-5,8-dihydro-pyrido[2,3-d]pyrimidine-6-carboxylic acid methoxy-amide]
1.6 |  | CCc1ccc(-n2cc(C(=O)NOC(C)C)c(=O)c3cnc(Nc4ccc(C5CCNCC5)cc4)nc32)cc1 [Cpd 58, 8-(4-ethyl-phenyl)-5-oxo-2-(4-piperidin-4-yl-phenylamino)-5,8-dihydro-pyrido[2,3-d]pyrimidine-6-carboxylic acid isopropoxy-amide]
1.8 |  | CONC(=O)c1cn(-c2ccc3c(c2)CCC3)c2nc(Nc3cccc(N4CCN(S(C)(=O)=O)CC4)c3)ncc2c1=O [Cpd 201, 8-indan-5-yl-2-[3-(4-methanesulfonyl-piperazin-1-yl)-phenylamino]-5-oxo-5,8-dihydro-pyrido[2,3-d]pyrimidine-6-carboxylic acid methoxy-amide]
0.43 |  | CCc1ccc(-n2cc(C(=O)NOC)c(=O)c3cnc(Nc4cccc(OC5CCCNC5)c4)nc32)cc1 (stereo not shown) [Cpd 248, 8-(4-ethyl-phenyl)-5-oxo-2-[3-(piperidin-3-yloxy)-phenylamino]-5,8-dihydro-pyrido[2,3-d]pyrimidine-6-carboxylic acid methoxy-amide]
0.29 |  | CCc1ccc(-n2cc(C(=O)NOC)c(=O)c3cnc(Nc4ccc(C5CCCCN5CC)cc4)nc32)cc1 (stereo not shown) [Cpd 245, 8-(4-ethyl-phenyl)-2-[4-(1-ethyl-piperidin-2-yl)-phenylamino]-5-oxo-5,8-dihydro-pyrido[2,3-d]pyrimidine-6-carboxylic acid methoxy-amide]
1.5 |  | CONC(=O)c1cn(C2CCCC2)c2nc(Nc3ccc(CN4CCCC4=O)cc3)ncc2c1=O [Cpd 37, 8-cyclopentyl-5-oxo-2-[4-(2-oxo-pyrrolidin-1-ylmethyl)-phenylamino]-5,8-dihydro-pyrido[2,3-d]pyrimidine-6-carboxylic acid methoxy-amide]
0.32 |  | CONC(=O)c1cn(-c2ccc3c(c2)CCC3)c2nc(Nc3ccc(CCN4CCC[C@@H](O)C4)cc3)ncc2c1=O [Cpd 239, 2-{4-{2-[(3R)-(3-hydroxy-piperidin-1-yl)]-ethyl}-phenylamino}-8-indan-5-yl-5-oxo-5,8-dihydro-pyrido[2,3-d]pyrimidine-6-carboxylic acid methoxy-amide]
3.2 |  | CONC(=O)c1cn(-c2ccc3c(c2)CCC3)c2nc(Nc3cccc(C4CCCN(C)C4)c3)ncc2c1=O (stereo not shown) [Cpd 271, 8-indan-5-yl-2-[3-(1-methyl-piperidin-3-yl)-phenylamino]-5-oxo-5,8-dihydro-pyrido[2,3-d]pyrimidine-6-carboxylic acid methoxy-amide]
5.5 |  | CCc1ccc(-n2cc(C(=O)NOC)c(=O)c3cnc(Nc4ccc(-n5cccc5)cc4)nc32)cc1 [Cpd 317, 8-(4-ethyl-phenyl)-5-oxo-2-(4-pyrrol-1-yl-phenylamino)-5,8-dihydro-pyrido[2,3-d]pyrimidine-6-carboxylic acid methoxy-amide]
0.53 |  | CONC(=O)c1cn(-c2ccc3c(c2)CCC3)c2nc(Nc3ccc(C4CCNCC4)cc3)ncc2c1=O [Cpd 75, 8-indan-5-yl-5-oxo-2-(4-piperidin-4-yl-phenylamino)-5,8-dihydro-pyrido[2,3-d]pyrimidine-6-carboxylic acid methoxy-amide]
